Assay results as given in patent US6515025B2, “Use of ethynyl alanine amino diol compounds to inhibit enzymatic conversion of angiotensinogen to angiotensin I” (Pharmacia Corporation, priority 1991, dated 2003).
Several values for one entry are separate records, joined by “and”; a condition that tells them apart may be missing. Equal entries are not always repeated. Where two headings read alike, the source gives them in different places.

Assays:
[1] = biological target: T1, human renin (Homo sapiens, UniProt P00797); test: Human renin inhibition in vitro; type: biochemical
T1 construct: purchased National Institute for Biological Standards, London
T1 sequence (P00797 67-406): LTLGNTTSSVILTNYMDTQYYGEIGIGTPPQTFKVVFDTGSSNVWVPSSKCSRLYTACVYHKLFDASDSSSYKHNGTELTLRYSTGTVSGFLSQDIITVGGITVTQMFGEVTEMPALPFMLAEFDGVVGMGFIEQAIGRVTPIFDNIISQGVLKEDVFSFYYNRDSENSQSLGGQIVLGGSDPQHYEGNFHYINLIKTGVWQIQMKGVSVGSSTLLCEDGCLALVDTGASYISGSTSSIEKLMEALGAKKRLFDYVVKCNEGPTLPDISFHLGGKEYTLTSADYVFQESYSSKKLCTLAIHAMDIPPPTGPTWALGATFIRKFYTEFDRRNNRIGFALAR
Method: Compounds of Formula I were evaluated as inhibitors of human renin in an in vitro assay, as follows: This human renin inhibition test has been previously described in detail [Papaioannou et al., Clinical and Experimental Hypertension, A7(9), 1243-1257 (1985)]. Human renin was obtained from the National Institute for Biological Standards, London. An incubation mixture was prepared containing the following components: in a total volume of 0.25 mL: 100 mM Tris-acetate buffer at pH 7.4, 25×10^−6 Goldblatt units of renin, 0.05 mL of plasma from human volunteers taking oral contraceptives, 6.0 mM Na-EDTA, 2.4 mM phenylmethyl sulfonyl fluoride, 1.5 mM 8-hydroxyquinoline, 0.4 mg/mL bovine serum albumin (BSA), and 0.024 mg/mL neomycin sulfate. This mixture was incubated for two hours at 37° C. in the presence or absence of renin inhibitors. The produced angiotensin I was determined by radioimmunoassay (New England Nuclear kit). Test compounds to be assayed were dissolved in DMSO and diluted with 100 mM Tris-acetate buffer at pH 7.4 containing 0.5% BSA to the appropriate concentration. The final concentration of organic solvent in the reaction mixture was less than 1%. Control incubations at 37° C. were used to correct for effects of organic solvent on renin activity.

[2] = Oral bioavailability studies in dogs (plasma concentration by bioassay); type: in vivo; settings: dog
Method: The bioavailability in marmosets and dogs was determined by sampling the blood via the femoral vein at various time points after administering the renin inhibitor compounds of the invention in polyethylene glycol 400 at an intragastric dose of 10 mg/kg or at an intravenous dose of 1 mg/kg. Compound concentration in plasma was determined using the bioassay technique described below. The percent bioavailability was calculated by dividing the area under the concentration-vs.-time curve obtained from the intragastric experiment by the area under the concentration-vs.-time curve obtained from the intravenous experiment (adjusting for different doses), and multiplying the result by 100%. The bioavailibility of Example 1 compound is 27% in marmosets and 33% in dogs.
Renin inhibitor plasma concentrations were determined by a bioassay. The plasma samples were extracted with acetonitrile and the extract was evaporated to dryness under nitrogen. Residue was dissolved in 4% bovine serum albumin containing 0.9% NaCl and 5% EDTA. The dissolved residue (0.1 ml) was incubated with a reaction mixture containing human plasma (0.12 ml), 5% phenylmethysulfonylfluoride (1.2 ul), 10% neomycin (2.4 ul), 0.5 M TES buffer (pH 7.4, 24 ul), and 0.6 mU/ml recombinant human renin (1000 U/mg, 50 ul) at 37° C. for 90 minutes. The renin activity was determined by a standard angiotensin I radioimmunoassay (New England Nuclear Corp.). The amount of test compound in the plasma was determined by comparing the extent of inhibition of renin activity with that produced by a known amount of test compound added to plasma and analyzed above.

C#CC[C@H](NC(=O)C(CC(=O)N(C)CCN(C)C)Cc1ccccc1)C(=O)NC(CC1CCCCC1)[C@@H](O)C(O)CC(C)C (relative stereo) [Example 1, N1-[1R*-[[[1S,1R*-(cyclohexylmethyl)-2S*,3R*-dihydroxy-5-methylhexyl]amino]carbonyl]-3-butynyl]-N4-[2-(dimethylamino)ethyl]-N4-methyl-2S*-(phenylmethyl)butanediamide]
IC50 [1]: 1 nM
Oral (%) Bioavail, Mean ± SE ([2]; IG 10 mg/kg vs IV 1 mg/kg): 33.1 ± 3.8%
Oral (%) Bioavail ([2]; IG 10 mg/kg vs IV 1 mg/kg, individual animals): 35.8% and 25.6% and 38.0%
Estimated Plasma Concentration ([2]; IG at 10 mg/kg, 15 min, individual animals, 10 mg/kg): 105.7 ng/mL and <2.0 ng/mL and 265.6 ng/mL
Estimated Plasma Concentration ([2]; IG at 10 mg/kg, 30 min, individual animals, 10 mg/kg): 495.9 ng/mL and 330.4 ng/mL and 864.7 ng/mL
Estimated Plasma Concentration ([2]; IG at 10 mg/kg, 1 hr, individual animals, 10 mg/kg): 859.6 ng/mL
Estimated Plasma Concentration ([2]; IG at 10 mg/kg, 2 hr, individual animals, 10 mg/kg): 352.7 ng/mL and 554.5 ng/mL
Estimated Plasma Concentration ([2]; IG at 10 mg/kg, 4 hr, individual animals, 10 mg/kg): 68.8 ng/mL and 130.3 ng/mL
Estimated Plasma Concentration ([2]; IG at 10 mg/kg, 6 hr, individual animals, 10 mg/kg): 47.1 ng/mL and 72.4 ng/mL
Estimated Plasma Concentration ([2]; IG at 10 mg/kg, 8 hr, individual animals, 10 mg/kg): 25.4 ng/mL and 45.4 ng/mL
Estimated Plasma Concentration ([2]; IG at 10 mg/kg, 24 hr, individual animals, 10 mg/kg): 8.4 ng/mL and 8.0 ng/mL
Estimated Plasma Concentration ([2]; IV at 1 mg/kg, 2 min, individual animals, 1 mg/kg): 3284.4 ng/mL and 2982.7 ng/mL
Estimated Plasma Concentration ([2]; IV at 1 mg/kg, 5 min, individual animals, 1 mg/kg): 680.9 ng/mL and 521.1 ng/mL
Estimated Plasma Concentration ([2]; IV at 1 mg/kg, 10 min, individual animals, 1 mg/kg): 307.1 ng/mL and 218.0 ng/mL
Estimated Plasma Concentration ([2]; IV at 1 mg/kg, 15 min, individual animals, 1 mg/kg): 144.4 ng/mL and 146.9 ng/mL
Estimated Plasma Concentration ([2]; IV at 1 mg/kg, 30 min, individual animals, 1 mg/kg): 102.8 ng/mL and 122.5 ng/mL
Estimated Plasma Concentration ([2]; IV at 1 mg/kg, 1 hr, individual animals, 1 mg/kg): 67.6 ng/mL and 50.0 ng/mL
Estimated Plasma Concentration ([2]; IV at 1 mg/kg, 2 hr, individual animals, 1 mg/kg): 56.0 ng/mL and 69.8 ng/mL
Estimated Plasma Concentration ([2]; IV at 1 mg/kg, 4 hr, individual animals, 1 mg/kg): 23.5 ng/mL
Estimated Plasma Concentration ([2]; IV at 1 mg/kg, 6 hr, individual animals, 1 mg/kg): 10.2 ng/mL and 13.5 ng/mL
Estimated Plasma Concentration ([2]; IV at 1 mg/kg, 8 hr, individual animals, 1 mg/kg): 4.9 ng/mL and 6.1 ng/mL
Estimated Plasma Concentration ([2]; IV at 1 mg/kg, 24 hr, individual animals, 1 mg/kg): 1.5 ng/mL and 1.3 ng/mL
Vd ([2]; individual animals): 8.7 L/kg and 8.3 L/kg
t1/2 ([2]; individual animals): 4.4 h and 4.3 h
half-life ([2]; plasma, dogs, read-out: terminal half-life (converted)): 4.7 h
Vd ([2]; plasma, dogs, read-out: volume of distribution): 9.5 L/kg
Vd ([2]; plasma, individual animals, read-out: Vd): 11.5 L/kg
half-life ([2]; plasma, individual animals, read-out: t1/2 (converted)): 5.3 h
concentration at 2 min ([2]; plasma, iv, 1 mg/kg, IV at 1 mg/kg, 2 min, individual animals, read-out: Estimated Plasma Concentration): 2420 ng/mL
concentration at 2 min ([2]; plasma, iv, 1 mg/kg, IV at 1 mg/kg, 2 min, read-out: Estimated Plasma Concentration, Mean ± SE): 2890 ± 254 ng/mL
concentration at 5 min ([2]; plasma, iv, 1 mg/kg, IV at 1 mg/kg, 5 min, individual animals, read-out: Estimated Plasma Concentration): 613 ng/mL
concentration at 5 min ([2]; plasma, iv, 1 mg/kg, IV at 1 mg/kg, 5 min, read-out: Estimated Plasma Concentration, Mean ± SE): 605 ± 46.3 ng/mL
concentration at 10 min ([2]; plasma, iv, 1 mg/kg, IV at 1 mg/kg, 10 min, individual animals, read-out: Estimated Plasma Concentration): 299 ng/mL
concentration at 10 min ([2]; plasma, iv, 1 mg/kg, IV at 1 mg/kg, 10 min, read-out: Estimated Plasma Concentration, Mean ± SE): 275 ± 28.4 ng/mL
concentration at 15 min ([2]; plasma, iv, 1 mg/kg, IV at 1 mg/kg, 15 min, individual animals, read-out: Estimated Plasma Concentration): 218 ng/mL
concentration at 15 min ([2]; plasma, iv, 1 mg/kg, IV at 1 mg/kg, 15 min, read-out: Estimated Plasma Concentration, Mean ± SE): 170 ± 24.1 ng/mL
concentration at 30 min ([2]; plasma, iv, 1 mg/kg, IV at 1 mg/kg, 30 min, individual animals, read-out: Estimated Plasma Concentration): 145 ng/mL
concentration at 30 min ([2]; plasma, iv, 1 mg/kg, IV at 1 mg/kg, 30 min, read-out: Estimated Plasma Concentration, Mean ± SE): 123 ± 12.1 ng/mL
concentration at 1 h ([2]; plasma, iv, 1 mg/kg, IV at 1 mg/kg, 1 hr, individual animals, read-out: Estimated Plasma Concentration): 70.4 ng/mL
concentration at 1 h ([2]; plasma, iv, 1 mg/kg, IV at 1 mg/kg, 1 hr, read-out: Estimated Plasma Concentration, Mean ± SE): 62.7 ± 6.4 ng/mL
concentration at 2 h ([2]; plasma, iv, 1 mg/kg, IV at 1 mg/kg, 2 hr, individual animals, read-out: Estimated Plasma Concentration): 48.8 ng/mL
concentration at 2 h ([2]; plasma, iv, 1 mg/kg, IV at 1 mg/kg, 2 hr, read-out: Estimated Plasma Concentration, Mean ± SE): 58.2 ± 6.2 ng/mL
concentration at 4 h ([2]; plasma, iv, 1 mg/kg, IV at 1 mg/kg, 4 hr, individual animals, read-out: Estimated Plasma Concentration): 18.6 ng/mL
concentration at 4 h ([2]; plasma, iv, 1 mg/kg, IV at 1 mg/kg, 4 hr, read-out: Estimated Plasma Concentration, Mean ± SE): 21.9 ± 1.6 ng/mL
concentration at 6 h ([2]; plasma, iv, 1 mg/kg, IV at 1 mg/kg, 6 hr, individual animals, read-out: Estimated Plasma Concentration): 10.1 ng/mL
concentration at 6 h ([2]; plasma, iv, 1 mg/kg, IV at 1 mg/kg, 6 hr, read-out: Estimated Plasma Concentration, Mean ± SE): 11.3 ± 1.1 ng/mL
concentration at 8 h ([2]; plasma, iv, 1 mg/kg, IV at 1 mg/kg, 8 hr, individual animals, read-out: Estimated Plasma Concentration): 6.4 ng/mL
concentration at 8 h ([2]; plasma, iv, 1 mg/kg, IV at 1 mg/kg, 8 hr, read-out: Estimated Plasma Concentration, Mean ± SE): 5.8 ± 0.5 ng/mL
concentration at 24 h ([2]; plasma, iv, 1 mg/kg, IV at 1 mg/kg, 24 hr, individual animals, read-out: Estimated Plasma Concentration): 2.5 ng/mL
concentration at 24 h ([2]; plasma, iv, 1 mg/kg, IV at 1 mg/kg, 24 hr, read-out: Estimated Plasma Concentration, Mean ± SE): 1.8 ± 0.4 ng/mL
concentration at 15 min ([2]; plasma, oral, 10 mg/kg, IG at 10 mg/kg, 15 min, read-out: Estimated Plasma Concentration, Mean ± SE): 128 ± 77.2 ng/mL
concentration at 30 min ([2]; plasma, oral, 10 mg/kg, IG at 10 mg/kg, 30 min, read-out: Estimated Plasma Concentration, Mean ± SE): 564 ± 158 ng/mL
concentration at 1 h ([2]; plasma, oral, 10 mg/kg, IG at 10 mg/kg, 1 hr, individual animals, read-out: Estimated Plasma Concentration): 678 ng/mL
concentration at 1 h ([2]; plasma, oral, 10 mg/kg, IG at 10 mg/kg, 1 hr, read-out: Estimated Plasma Concentration, Mean ± SE): 799 ± 60.5 ng/mL
concentration at 2 h ([2]; plasma, oral, 10 mg/kg, IG at 10 mg/kg, 2 hr, individual animals, read-out: Estimated Plasma Concentration): 599 ng/mL
concentration at 2 h ([2]; plasma, oral, 10 mg/kg, IG at 10 mg/kg, 2 hr, read-out: Estimated Plasma Concentration, Mean ± SE): 502 ± 75.8 ng/mL
concentration at 4 h ([2]; plasma, oral, 10 mg/kg, IG at 10 mg/kg, 4 hr, individual animals, read-out: Estimated Plasma Concentration): 123 ng/mL
concentration at 4 h ([2]; plasma, oral, 10 mg/kg, IG at 10 mg/kg, 4 hr, read-out: Estimated Plasma Concentration, Mean ± SE): 110 ± 20.9 ng/mL
concentration at 6 h ([2]; plasma, oral, 10 mg/kg, IG at 10 mg/kg, 6 hr, individual animals, read-out: Estimated Plasma Concentration): 66.9 ng/mL
concentration at 6 h ([2]; plasma, oral, 10 mg/kg, IG at 10 mg/kg, 6 hr, read-out: Estimated Plasma Concentration, Mean ± SE): 62.1 ± 7.7 ng/mL
concentration at 8 h ([2]; plasma, oral, 10 mg/kg, IG at 10 mg/kg, 8 hr, individual animals, read-out: Estimated Plasma Concentration): 33.5 ng/mL
concentration at 8 h ([2]; plasma, oral, 10 mg/kg, IG at 10 mg/kg, 8 hr, read-out: Estimated Plasma Concentration, Mean ± SE): 34.8 ± 5.8 ng/mL
concentration at 24 h ([2]; plasma, oral, 10 mg/kg, IG at 10 mg/kg, 24 hr, individual animals, read-out: Estimated Plasma Concentration): 6.2 ng/mL
concentration at 24 h ([2]; plasma, oral, 10 mg/kg, IG at 10 mg/kg, 24 hr, read-out: Estimated Plasma Concentration, Mean ± SE): 7.5 ± 0.7 ng/mL
bioavailability ([2]; plasma, oral, dogs, IG 10 mg/kg vs IV 1 mg/kg): 33%
Vd ([2]; plasma, read-out: Vd, Mean ± SE): 9.5 ± 1 L/kg
half-life ([2]; plasma, read-out: t1/2, Mean ± SE (converted)): 4.7 ± 0.3 h
